Assay results: US10874743B2, “IRAK degraders and uses thereof” (Kymera Therapeutics, Inc., priority 2017, dated 2020)

Columns and labels:
OCI-LY10 cells = test: OCI-LY-10 CTG cell viability assay (EC50); format: cell-based; settings: Homo sapiens, 96 h, CellTiter-Glo cell viability, 4 days incubation, top concentration 10 μM, read-out: OCI-LY10 IRAK4 EC50
How it was run: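 OCI-LY10 cells were exposed to a 9-dose, 1:3 series (top 10 μM, 0.2% DMSO) for 4 days at 37 °C. Viability was measured by CellTiter-Glo luminescence, and EC50 came from a three-parameter logistic fit.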

IRAK4 = molecular target: T1, IRAK4 (Homo sapiens, UniProt Q9NWZ3); test: OCI-LY-10 MSD assay for IRAK4 DC50; format: cell-based; set-up: endogenous in cells; host or cells: OCI-LY10; settings: OCI-LY10 cells, 4 hr incubation, concentration required to degrade 50% of protein
T1 sequence (Q9NWZ3 1-460): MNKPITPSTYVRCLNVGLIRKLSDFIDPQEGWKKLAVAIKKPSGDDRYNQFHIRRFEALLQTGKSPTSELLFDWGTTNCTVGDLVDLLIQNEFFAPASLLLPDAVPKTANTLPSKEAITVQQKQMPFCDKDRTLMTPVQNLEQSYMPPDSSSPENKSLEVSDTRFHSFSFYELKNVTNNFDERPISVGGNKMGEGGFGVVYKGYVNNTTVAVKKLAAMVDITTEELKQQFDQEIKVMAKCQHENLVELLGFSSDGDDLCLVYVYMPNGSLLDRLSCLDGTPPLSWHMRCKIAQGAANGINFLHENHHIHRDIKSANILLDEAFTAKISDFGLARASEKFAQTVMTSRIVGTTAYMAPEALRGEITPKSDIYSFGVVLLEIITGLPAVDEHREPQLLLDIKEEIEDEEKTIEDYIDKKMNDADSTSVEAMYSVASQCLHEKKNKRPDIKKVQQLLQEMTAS
How it was run: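 IRAK4 level was quantified by MSD electrochemiluminescence (anti-IRAK4 capture antibody, rabbit anti-IRAK4 detection antibody) in RIPA lysates of OCI-Ly10 cells. Cells had been treated with compound for 4 hr (8-point, 3-fold serial dilution). Remaining protein versus concentration was fitted to a sigmoidal curve to give DC50.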

Row | SMILES | EC50 (OCI-LY10 cells) [nM] | DC50 (IRAK4) [nM]
1 | CN[C@@H](C)C(=O)N[C@H](C(=O)N1Cc2cc(OCCOCCOCCOCCOCCOCCNC(=O)c3ccc(-n4cc(NC(=O)c5coc(-c6ccnc(NCC7CC7)c6)n5)c(C(F)F)n4)cc3)ccc2C[C@H]1C(=O)N[C@@H]1CCCc2ccccc21)C(C)(C)C [I-520, 2-[2-(Cyclopropylmethylamino)-4-pyridyl]-N-[3-(difluoromethyl)-1-[4-[2-[2-[2-[2-[2-[2-[[(3S)-2-[(2S)-3,3-dimethyl-2-[[(2S)-2-(methylamino)propanoyl]amino]butanoyl]-3-[[(1R)-tetralin-1-yl]carbamoyl]-3,4-dihydro-1H-isoquinolin-7-yl]oxy]ethoxy]ethoxy]ethoxy]ethoxy]ethoxy]ethylcarbamoyl]phenyl]-pyrazol-4-yl]oxazole-4-carboxamide] | > 1000 | 500 to 1000
2 | CN[C@@H](C)C(=O)N[C@H](C(=O)N1Cc2cc(OCCOCCOCCOCCNC(=O)c3ccc(-n4cc(NC(=O)c5coc(-c6ccnc(NCC7CC7)c6)n5)c(C(F)F)n4)cc3)ccc2C[C@H]1C(=O)N[C@@H]1CCCc2ccccc21)C(C)(C)C [I-521] | > 1000 | > 1000
3 | Cn1cc(NC(=O)c2coc(-c3ccnc(NCC(F)(F)F)c3)n2)c(CNCCOCCOCCOCCOCCOCCNc2cccc3c2C(=O)N(C2CCC(=O)NC2=O)C3=O)n1 (stereo not shown) [I-522] | > 1000 | > 1000
4 | Cn1c(=O)n(C2CCC(=O)NC2=O)c2cccc(CCCCOCCCCNCc3ccc(-n4cc(NC(=O)c5coc(-c6ccnc(NCC7CC7)c6)n5)c(C(F)F)n4)cc3)c21 (stereo not shown) [I-523] | < 50 | 50 to 100
5 | CN(CC(=O)N(C)CC(=O)N(C)CC(=O)N(C)CCCc1cccc2c1n(C)c(=O)n2C1CCC(=O)NC1=O)Cc1nn(C)cc1NC(=O)c1coc(-c2ccnc(NCC(F)(F)F)c2)n1 (stereo not shown) [I-525] | > 1000 | > 1000
6 | O=C1CCC(N2Cc3cc(CNC(=O)NCCOCCOCCNCc4ccc(-n5cc(NC(=O)c6coc(-c7ccnc(NCC8CC8)c7)n6)c(C(F)F)n5)cc4)ccc3C2=O)C(=O)N1 (stereo not shown) [I-529] | 50 to 100 | 50 to 100
7 | Cn1c(=O)n(C2CCC(=O)NC2=O)c2cccc(CCCOCCNCc3ccc(-n4cc(NC(=O)c5coc(-c6ccnc(NCC7CC7)c6)n5)c(C(F)F)n4)cc3)c21 (stereo not shown) [I-530] | < 50 | < 50
8 | Cn1c(=O)n(C2CCC(=O)NC2=O)c2ccc(CCCOCCNCc3ccc(-n4cc(NC(=O)c5coc(-c6ccnc(NCC(F)(F)F)c6)n5)c(C(F)F)n4)cc3)cc21 (stereo not shown) [I-532] | 500 to 1000 | < 50
9 | Cn1c(=O)n(C2CCC(=O)NC2=O)c2ccc(CCCOCCCNCc3ccc(-n4cc(NC(=O)c5coc(-c6ccnc(NCC(F)(F)F)c6)n5)c(C(F)F)n4)cc3)cc21 (stereo not shown) [I-534] | > 1000 | < 50
10 | Cn1c(=O)n(C2CCC(=O)NC2=O)c2cccc(CCCOCCCNCc3ccc(-n4cc(NC(=O)c5coc(-c6ccnc(NCC(F)(F)F)c6)n5)c(C(F)F)n4)cc3)c21 (stereo not shown) [I-535] | > 1000 | < 50
11 | Cn1c(=O)n(C2CCC(=O)NC2=O)c2ccc(CNCCCCCNCc3ccc(-n4cc(NC(=O)c5coc(-c6ccnc(NCC7CC7)c6)n5)c(C(F)F)n4)cc3)cc21 (stereo not shown) [I-542] | < 50 | < 50
12 | O=C1CCC(n2c(=O)oc3c(CCCOCCCNCc4ccc(-n5cc(NC(=O)c6coc(-c7ccnc(NCC8CC8)c7)n6)c(C(F)F)n5)cc4)cccc32)C(=O)N1 (stereo not shown) [I-548] | < 50 | < 50
13 | O=C1CCC(n2c(=O)oc3cc(CCCOCCCNCc4ccc(-n5cc(NC(=O)c6coc(-c7ccnc(NCC8CC8)c7)n6)c(C(F)F)n5)cc4)ccc32)C(=O)N1 (stereo not shown) [I-549] | < 50 | < 50
14 | O=C1CCC(n2c(=O)oc3cc(CCCOCCOCCNCc4ccc(-n5cc(NC(=O)c6coc(-c7ccnc(NCC8CC8)c7)n6)c(C(F)F)n5)cc4)ccc32)C(=O)N1 (stereo not shown) [I-550] | < 50 | < 50
15 | O=C1CCC(n2c(=O)n(CCOCCOCCNCc3ccc(-n4cc(NC(=O)c5coc(-c6ccnc(NCC7CC7)c6)n5)c(C(F)F)n4)cc3)c3ccccc32)C(=O)N1 (stereo not shown) [I-552] | < 50 | < 50
16 | CN[C@@H](C)C(=O)N[C@H](C(=O)N1CCC[C@H]1c1nc(C(=O)c2cccc(OCCOCCOCCOCCOCCOCCNCc3ccc(-n4cc(NC(=O)c5coc(-c6ccnc(NCC7CC7)c6)n5)c(C(F)F)n4)cc3)c2)cs1)C1CCCCC1 [I-553] | > 1000 | 500 to 1000
17 | CN[C@@H](C)C(=O)N[C@H](C(=O)N1CCC[C@H]1c1nc(C(=O)c2cccc(OCCOCCOCCOCCOCCNCc3ccc(-n4cc(NC(=O)c5coc(-c6ccnc(NCC7CC7)c6)n5)c(C(F)F)n4)cc3)c2)cs1)C1CCCCC1 [I-555] | > 1000 | 500 to 1000
18 | CN[C@@H](C)C(=O)N[C@H](C(=O)N1CCC[C@H]1c1nc(C(=O)c2cccc(OCCOCCOCCNCc3ccc(-n4cc(NC(=O)c5coc(-c6ccnc(NCC7CC7)c6)n5)c(C(F)F)n4)cc3)c2)cs1)C1CCCCC1 [I-556] | > 1000 | 500 to 1000
19 | CN1CCN(C(=O)c2nn(-c3ccc(CNCCCCOCCCCc4ccc5c(c4)n(C)c(=O)n5C4CCC(=O)NC4=O)cc3)cc2NC(=O)c2coc(-c3ccnc(NCC(F)(F)F)c3)n2)CC1 (stereo not shown) [I-559] | 500 to 1000 | > 1000
20 | NC(=O)c1nn(-c2ccc(CNCCCOCCCc3ccc4c(c3)oc(=O)n4C3CCC(=O)NC3=O)cc2)cc1NC(=O)c1coc(-c2ccnc(NCC(F)(F)F)c2)n1 (stereo not shown) [I-567] | 500 to 1000 | < 50
21 | NC(=O)c1nn(-c2ccc(CNCCOCCOCCCc3ccc4c(c3)oc(=O)n4C3CCC(=O)NC3=O)cc2)cc1NC(=O)c1coc(-c2ccnc(NCC(F)(F)F)c2)n1 (stereo not shown) [I-568] | 100 to 500 | < 50
22 | Cn1c(=O)n(C2CCC(=O)NC2=O)c2ccc(CCCN3CCO[C@H](CNCc4ccc(-n5cc(NC(=O)c6coc(-c7ccnc(NCC(F)(F)F)c7)n6)c(C(N)=O)n5)cc4)C3)cc21 (stereo partly shown) [I-572] | 100 to 500 | < 50
23 | Cn1c(=O)n(C2CCC(=O)NC2=O)c2ccc(CCCN3CCO[C@@H](CNCc4ccc(-n5cc(NC(=O)c6coc(-c7ccnc(NCC8CC8)c7)n6)c(C(F)F)n5)cc4)C3)cc21 (stereo partly shown) [I-574] | < 50 | < 50
24 | Cn1c(=O)n(C2CCC(=O)NC2=O)c2ccc(CN3CCN(CCO[C@H]4C[C@H](NCc5ccc(-n6cc(NC(=O)c7coc(-c8ccnc(NCC9CC9)c8)n7)c(C(F)F)n6)cc5)C4)CC3)cc21 (stereo partly shown) [I-583] | < 50 | < 50

Other lines, results leading:

Row | EC50 (OCI-LY10 cells) [nM] | DC50 (IRAK4) [nM] | SMILES
25 | < 50 | < 50 | Cn1c(=O)n(C2CCC(=O)NC2=O)c2cccc(CCCNCC3COC4C(CNCc5ccc(-n6cc(NC(=O)c7coc(-c8ccnc(NCC(F)(F)F)c8)n7)c(C(F)F)n6)cc5)COC34)c21 (stereo not shown) [I-536]
26 | < 50 | < 50 | Cn1c(=O)n(C2CCC(=O)NC2=O)c2ccc(CCCNCC3COC4C(CNCc5ccc(-n6cc(NC(=O)c7coc(-c8ccnc(NCC9CC9)c8)n7)c(C(F)F)n6)cc5)COC34)cc21 (stereo not shown) [I-537]
27 | < 50 | 500 to 1000 | Cn1c(=O)n(C2CCC(=O)NC2=O)c2ccc(CCCOCCOCCNCc3ccc(-n4cc(NC(=O)c5coc(-c6ccnc(NCC7CC7)c6)n5)c(C(F)F)n4)cc3F)cc21 (stereo not shown) [I-539]
28 | < 50 | < 50 | Cn1c(=O)n(C2CCC(=O)NC2=O)c2ccc(CNC(=O)COCCNCc3ccc(-n4cc(NC(=O)c5coc(-c6ccnc(NCC7CC7)c6)n5)c(C(F)F)n4)cc3)cc21 (stereo not shown) [I-543]
29 | < 50 | < 50 | Cn1c(=O)n(C2CCC(=O)NC2=O)c2ccc(CNC(=O)OCCCNCc3ccc(-n4cc(NC(=O)c5coc(-c6ccnc(NCC7CC7)c6)n5)c(C(F)F)n4)cc3)cc21 (stereo not shown) [I-545]
30 | < 50 | < 50 | O=C1CCC(n2c(=O)oc3c(CCCOCCOCCNCc4ccc(-n5cc(NC(=O)c6coc(-c7ccnc(NCC8CC8)c7)n6)c(C(F)F)n5)cc4)cccc32)C(=O)N1 (stereo not shown) [I-551]
31 | < 50 | < 50 | O=C1CCC(N2Cc3cc(CNC(=O)OCCNCc4ccc(-n5cc(NC(=O)c6coc(-c7ccnc(NCC8CC8)c7)n6)c(C(F)F)n5)cc4)ccc3C2=O)C(=O)N1 (stereo not shown) [I-558]
32 | > 1000 | 100 to 500 | Cn1c(=O)n(C2CCC(=O)NC2=O)c2ccc(N3CCN(CCOCCNCc4ccc(-n5cc(NC(=O)c6coc(-c7ccnc(NCC(F)(F)F)c7)n6)c(C(N)=O)n5)cc4)CC3)cc21 (stereo not shown) [I-564]
33 | < 50 | < 50 | Cn1c(=O)n(C2CCC(=O)NC2=O)c2ccc(CCCN3CCO[C@H](CCNCc4ccc(-n5cc(NC(=O)c6coc(-c7ccnc(NCC(F)(F)F)c7)n6)c(C(N)=O)n5)cc4)C3)cc21 (stereo partly shown) [I-576]
34 | > 1000 | 100 to 500 | NC(=O)c1nn(-c2ccc(CNCCOCCOCCOC(=O)NCc3ccc4c(c3)CN(C3CCC(=O)NC3=O)C4=O)cc2)cc1NC(=O)c1coc(-c2ccnc(NCC(F)(F)F)c2)n1 (stereo not shown) [I-579]
35 | < 50 | 50 to 100 | O=C1CCC(N2C[C@H](c3ccc(C#CCCOCCCNCc4ccc(-n5cc(NC(=O)c6coc(-c7ccnc(NCC8CC8)c7)n6)c(C(F)F)n5)cc4)cc3)OC2=O)C(=O)N1 (stereo partly shown) [I-580]
